Like-named read-outs stand apart in the source and are kept apart here.
Assays:
[1] = tested on: ERK phosphorylation in KYSE-520 cells; assay: Phospho-ERK cellular assay; format: cell-based; conditions: KYSE-520 cells, 2 h at 37° C., phospho-ERK1/2 (Thr202/Tyr204) TR-FRET, read-out: PERK IC50
Summary of the method: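 TR-FRET read-out of ERK1/2 Thr202/Tyr204 phosphorylation was taken after overnight antibody incubation at room temperature. Before that, KYSE-520 cells were treated 2 h at 37 °C with compound dilutions and lysed 30 min. Percent inhibition relative to vehicle and cell-free wells was fitted four-parametrically to give IC50.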

[2] = biological target: SHP-2 enzyme (Met1-Leu525) (Homo sapiens (Human), UniProt Q06124); assay: SHP2 inhibition enzymatic assay; format: biochemical; conditions: 0.5 nM SHP-2 activated by 500 nM IRS1 peptide, 75 μM DiFMUP substrate; read-out: SHP2wt-IC50
Summary of the method: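 SHP-2 (Met1-Leu525), 0.5 nM, activated with 500 nM IRS1 bis-phosphopeptide, preincubated 30 min with compounds in HEPES pH 7.2 buffer with 5 mM DTT. 75 μM DiFMUP added for 30 min at room temperature, stopped with bpV; fluorescence read. IC50 from four-parameter logistic fit of % inhibition.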

Chain of SHP-2 enzyme (Met1-Leu525) (Q06124 1-525): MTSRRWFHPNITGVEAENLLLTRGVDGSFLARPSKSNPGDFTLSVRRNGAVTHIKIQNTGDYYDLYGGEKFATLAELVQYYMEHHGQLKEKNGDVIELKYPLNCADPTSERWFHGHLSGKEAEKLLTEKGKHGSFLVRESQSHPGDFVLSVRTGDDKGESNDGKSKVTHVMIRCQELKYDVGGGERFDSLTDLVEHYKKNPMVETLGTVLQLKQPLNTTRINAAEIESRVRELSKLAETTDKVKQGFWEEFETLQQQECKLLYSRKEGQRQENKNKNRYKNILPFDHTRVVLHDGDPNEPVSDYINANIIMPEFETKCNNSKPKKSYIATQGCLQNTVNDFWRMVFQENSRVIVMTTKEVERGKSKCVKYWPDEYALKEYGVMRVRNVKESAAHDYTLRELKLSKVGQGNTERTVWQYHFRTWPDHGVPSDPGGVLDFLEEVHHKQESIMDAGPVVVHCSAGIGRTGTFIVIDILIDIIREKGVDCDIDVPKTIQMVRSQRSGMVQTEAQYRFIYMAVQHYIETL

Compound | IC50 ([1]; Homo sapiens, KYSE-520, 2 h) | IC50 [2] | IC50 [1]
NCC1(c2ccccc2F)C2CCN(c3cnc4c(-c5cccc6ccsc56)n[nH]c4n3)CC21 (stereo not shown) [Example 4, (3-(3-(benzo[b]thiophen-7-yl)-1H-pyrazolo[3,4-b]pyrazin-6-yl)-7-(2-fluorophenyl)-3-azabicyclo[4.1.0]heptan-7-yl)methanamine] | 1000 to 5000 nM | < 500 nM | –
NC[C@]1(c2ccccc2F)[C@@H]2CCN(c3cnc4c(-c5ccc6c(c5)CCN6)n[nH]c4n3)C[C@@H]21 [Example 312, ((1S,6R,7R)-7-(2-fluorophenyl)-3-(3-(indolin-5-yl)-1H-pyrazolo[3,4-b]pyrazin-6-yl)-3-azabicyclo[4.1.0]heptan-7-yl)methanamine] | < 1000 nM | < 500 nM | –
NC[C@]1(c2cccc(F)c2F)[C@@H]2CCN(c3cnc(Sc4ccnc(N)c4Cl)c(N)n3)C[C@@H]21 [Example 429, 3-((2-amino-3-chloropyridin-4-yl)thio)-6-((1S,6R,7R)-7-(aminomethyl)-7-(2,3-difluorophenyl)-3-azabicyclo[4.1.0]heptan-3-yl)pyrazin-2-amine] | < 1000 nM | < 500 nM | –
Cc1nc2ccc(-c3n[nH]c4nc(N5CC[C@@H]6[C@H](C5)[C@@]6(CN)c5ccc(F)cn5)cnc34)c(Cl)c2s1 [Example 121, ((1S,6R,7S)-3-(3-(7-chloro-2-methylbenzo[d]thiazol-6-yl)-1H-pyrazolo[3,4-b]pyrazin-6-yl)-7-(5-fluoropyridin-2-yl)-3-azabicyclo[4.1.0]heptan-7-yl)methanamine] | < 1000 nM | < 500 nM | –
Cc1cc(C2(CN)C3CCN(c4cnc5c(Sc6ccnc(N)c6Cl)n[nH]c5n4)CC32)no1 (stereo not shown) [Example 53, 4-((6-(7-(aminomethyl)-7-(5-methylisoxazol-3-yl)-3-azabicyclo[4.1.0]heptan-3-yl)-1H-pyrazolo[3,4-b]pyrazin-3-yl)thio)-3-chloropyridin-2-amine] | < 1000 nM | < 500 nM | –
NC[C@]1(c2ccccc2F)[C@@H]2CCN(c3cnc4c(-c5ccc6c(c5)CC(=O)N6)n[nH]c4n3)C[C@@H]21 [Example 187, 5-(6-((1S,6R,7R)-7-(aminomethyl)-7-(2-fluorophenyl)-3-azabicyclo[4.1.0]heptan-3-yl)-1H-pyrazolo[3,4-b]pyrazin-3-yl)indolin-2-one] | < 1000 nM | < 500 nM | –
NCC1(c2ccccc2F)C2CCN(c3cnc4c(-c5cccc(Cl)c5Cl)n[nH]c4n3)CC21 (stereo not shown) [Example 3, (3-(3-(2,3-dichlorophenyl)-1H-pyrazolo[3,4-b]pyrazin-6-yl)-7-(2-fluorophenyl)-3-azabicyclo[4.1.0]heptan-7-yl)methanamine] | < 1000 nM | < 500 nM | –
NC[C@]1(c2ccccc2F)[C@@H]2CCN(c3cnc(Sc4ccc(C(N)=O)c5ncccc45)c(N)n3)C[C@@H]21 [Example 525, 5-((3-amino-5-((1S,6R,7R)-7-(aminomethyl)-7-(2-fluorophenyl)-3-azabicyclo[4.1.0]heptan-3-yl)pyrazin-2-yl)thio)quinoline-8-carboxamide] | > 5000 nM | < 500 nM | –
Cc1csc(C2(CN)C3CCN(c4nc5[nH]nc(-c6cccc(Cl)c6Cl)c5nc4CO)CC32)n1 (stereo not shown) [Example 102, (6-(7-(aminomethyl)-7-(4-methylthiazol-2-yl)-3-azabicyclo[4.1.0]heptan-3-yl)-3-(2,3-dichlorophenyl)-1H-pyrazolo[3,4-b]pyrazin-5-yl)methanol] | < 1000 nM | < 500 nM | –
Cn1cc2c(Cl)c(-c3n[nH]c4nc(N5CC[C@@H]6[C@H](C5)[C@@]6(CN)c5cc(F)cc(F)c5)cnc34)ccc2n1 [Example 291, ((1S,6R,7R)-3-(3-(4-chloro-2-methyl-2H-indazol-5-yl)-1H-pyrazolo[3,4-b]pyrazin-6-yl)-7-(3,5-difluorophenyl)-3-azabicyclo[4.1.0]heptan-7-yl)methanamine] | < 1000 nM | < 500 nM | –
Cc1ccc([C@@]2(CN)[C@@H]3CN(c4cnc5c(-c6ccc7nn(C)cc7c6Cl)n[nH]c5n4)C[C@@H]32)nc1 [Example 493, ((1R,5S,6r)-3-(3-(4-chloro-2-methyl-2H-indazol-5-yl)-1H-pyrazolo[3,4-b]pyrazin-6-yl)-6-(5-methylpyridin-2-yl)-3-azabicyclo[3.1.0]hexan-6-yl)methanamine] | < 1000 nM | < 500 nM | –
Cc1csc([C@@]2(CN)[C@@H]3CN(c4cnc(Sc5ccnc(N)c5Cl)c(N)n4)C[C@@H]32)n1 [Example 434, 3-((2-amino-3-chloropyridin-4-yl)thio)-6-((1R,5S,6r)-6-(aminomethyl)-6-(4-methylthiazol-2-yl)-3-azabicyclo[3.1.0]hexan-3-yl)pyrazin-2-amine] | – | < 500 nM | < 1000 nM
COc1cccc2c(-c3n[nH]c4nc(N5CC[C@@H]6[C@H](C5)[C@@]6(CN)c5cc(C)on5)cnc34)ccnc12 [Example 125, ((1S,6R,7S)-3-(3-(8-methoxyquinolin-4-yl)-1H-pyrazolo[3,4-b]pyrazin-6-yl)-7-(5-methylisoxazol-3-yl)-3-azabicyclo[4.1.0]heptan-7-yl)methanamine] | < 1000 nM | < 500 nM | –
CN(C)C(=O)c1ccc(-c2n[nH]c3nc(N4CC[C@@H]5[C@H](C4)[C@@]5(CN)c4ccccc4F)cnc23)c2cccnc12 [Example 212, 5-(6-((1S,6R,7R)-7-(aminomethyl)-7-(2-fluorophenyl)-3-azabicyclo[4.1.0]heptan-3-yl)-1H-pyrazolo[3,4-b]pyrazin-3-yl)-N,N-dimethylquinoline-8-carboxamide] | > 5000 nM | < 500 nM | –
CC(C)n1cc2c(Cl)c(-c3n[nH]c4nc(N5CC[C@@H]6[C@H](C5)[C@@]6(CN)c5ccccc5F)cnc34)ccc2n1 [Example 280, ((1S,6R,7R)-3-(3-(4-chloro-2-isopropyl-2H-indazol-5-yl)-1H-pyrazolo[3,4-b]pyrazin-6-yl)-7-(2-fluorophenyl)-3-azabicyclo[4.1.0]heptan-7-yl)methanamine] | < 1000 nM | < 500 nM | –
Cn1cc(-c2ccc(-c3n[nH]c4nc(N5CC[C@@H]6[C@H](C5)[C@@]6(CN)c5ccccc5F)cnc34)c(Cl)c2)cn1 [Example 297, ((1S,6R,7R)-3-(3-(2-chloro-4-(1-methyl-1H-pyrazol-4-yl)phenyl)-1H-pyrazolo[3,4-b]pyrazin-6-yl)-7-(2-fluorophenyl)-3-azabicyclo[4.1.0]heptan-7-yl)methanamine] | < 1000 nM | < 500 nM | –
Cc1cc(C2(CN)C3CCN(c4cnc5c(-c6cccc7cnccc67)n[nH]c5n4)CC32)no1 (stereo not shown) [Example 23, (3-(3-(isoquinolin-5-yl)-1H-pyrazolo[3,4-b]pyrazin-6-yl)-7-(5-methylisoxazol-3-yl)-3-azabicyclo[4.1.0]heptan-7-yl)methanamine] | < 1000 nM | < 500 nM | –
Cc1cc(C2(CN)C3CCN(c4cnc5c(-c6ccnc7ccsc67)n[nH]c5n4)CC32)no1 (stereo not shown) [Example 18, (7-(5-methylisoxazol-3-yl)-3-(3-(thieno[3,2-b]pyridin-7-yl)-1H-pyrazolo[3,4-b]pyrazin-6-yl)-3-azabicyclo[4.1.0]heptan-7-yl)methanamine] | < 1000 nM | < 500 nM | –
Cn1ccc2c(F)c(-c3n[nH]c4nc(N5CC[C@@H]6[C@H](C5)[C@@]6(CN)c5ccccc5F)cnc34)ccc2c1=O [Example 316, 6-(6-((1S,6R,7R)-7-(aminomethyl)-7-(2-fluorophenyl)-3-azabicyclo[4.1.0]heptan-3-yl)-1H-pyrazolo[3,4-b]pyrazin-3-yl)-5-fluoro-2-methylisoquinolin-1(2H)-one] | < 1000 nM | < 500 nM | –
NC[C@]1(c2ccccc2F)[C@@H]2CCN(c3cnc4c(-c5ccnc(F)c5Cl)n[nH]c4n3)C[C@@H]21 [Example 509, ((1S,6R,7R)-3-(3-(3-chloro-2-fluoropyridin-4-yl)-1H-pyrazolo[3,4-b]pyrazin-6-yl)-7-(2-fluorophenyl)-3-azabicyclo[4.1.0]heptan-7-yl)methanamine] | < 1000 nM | < 500 nM | –
NC[C@]1(c2ccccc2F)[C@@H]2CCN(c3cc(=O)n4cc(Sc5ccnc(N)c5Cl)ccc4n3)C[C@@H]21 [Example 410, 7-((2-amino-3-chloropyridin-4-yl)thio)-2-((1S,6R,7R)-7-(aminomethyl)-7-(2-fluorophenyl)-3-azabicyclo[4.1.0]heptan-3-yl)-4H-pyrido[1,2-a]pyrimidin-4-one] | > 5000 nM | 500 to 3000 nM | –
CN(C)Cc1ccc(-c2n[nH]c3nc(N4CC[C@@H]5[C@H](C4)[C@@]5(CN)c4ccccc4F)cnc23)c2cccnc12 [Example 192, 1-(5-(6-((1S,6R,7R)-7-(aminomethyl)-7-(2-fluorophenyl)-3-azabicyclo[4.1.0]heptan-3-yl)-1H-pyrazolo[3,4-b]pyrazin-3-yl)quinolin-8-yl)-N,N-dimethylmethanamine] | > 5000 nM | < 500 nM | –
NC[C@]1(c2ccccc2F)[C@@H]2CCN(c3cnc4c(-c5cc6cc[nH]c(=O)c6cc5Cl)n[nH]c4n3)C[C@@H]21 [Example 370, 6-(6-((1S,6R,7R)-7-(aminomethyl)-7-(2-fluorophenyl)-3-azabicyclo[4.1.0]heptan-3-yl)-1H-pyrazolo[3,4-b]pyrazin-3-yl)-7-chloroisoquinolin-1(2H)-one] | < 1000 nM | < 500 nM | –
